Laboratory results as given in paper PMC5248581 (PeerJ, 2017).
Entries after “also recorded” stand apart in the source; their conditions may differ. Read-outs that look alike come from different tables or passages of the source. Residues, ends and D or L forms follow the SMILES beside them.

Assays:
[1] = molecular target: T1, human isolated umbilical vein (BK B2R; histamine H1R) (Homo sapiens, UniProt P30411)
T1 sequence (P30411 1-391): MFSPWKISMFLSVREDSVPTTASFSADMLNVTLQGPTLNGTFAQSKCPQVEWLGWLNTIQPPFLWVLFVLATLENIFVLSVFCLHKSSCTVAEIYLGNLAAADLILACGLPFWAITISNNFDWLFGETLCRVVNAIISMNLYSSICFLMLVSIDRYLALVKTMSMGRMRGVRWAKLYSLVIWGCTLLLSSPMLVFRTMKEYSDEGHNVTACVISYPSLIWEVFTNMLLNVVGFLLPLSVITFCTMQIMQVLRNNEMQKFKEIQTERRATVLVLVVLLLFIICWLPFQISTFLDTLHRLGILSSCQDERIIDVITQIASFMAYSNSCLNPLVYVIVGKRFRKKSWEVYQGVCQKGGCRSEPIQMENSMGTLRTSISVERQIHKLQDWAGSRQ
Description: The institutional research ethics board (CHU de Québec) approved the anonymous use of human umbilical cord segments obtained after elective cesarean section deliveries (file number: 2012-323). Informed written consent was obtained from mothers.
(§1) Results are presented as means ± s.e.m. Radioligand binding data were fitted by nonlinear regression to a one-site competition equation using a least-square method (Prism 5.0; GraphPad Software Inc., San Diego, CA, USA) and IC50 values calculated from this procedure. The same computer program was used to draw concentration-effect curves (least square fitting of sigmoidal dose–response equation with variable slope) and to derive contractile EC50 values. Data describing baseline values of heart rate and mean arterial blood pressure and hypotensive responses to peptides in anesthetized rats were assessed by using one-way analysis of variance (ANOVA) followed by the Dunnett’s test (repeated comparison with a common control). The effects of drugs on the hypotensive responses to each dose of MK were assessed by using ANOVA followed by the Dunnett’s test.

male Sprague-Dawley rats = conditions: for Basal mean arterial blood pressure after pre-treatment / Basal heart rate after pre-treatment: 15 min after i.v., enalaprilat 0.1 mg/kg n=6, icatibant 25 µg/kg n=6, pyrilamine 5 mg/kg n=16, means ± s.e.m.; for Basal mean arterial blood pressure after pre-treatment: control 96.5 ± 2.5; for Basal heart rate after pre-treatment: control 351 ± 10, * P < 0.01 vs control; for effect of pretreatment on hypotensive effect of MK: enalaprilat 0.1 mg/kg, icatibant 25 µg/kg, 15 min before MK
Procedure: All surgical and experimental procedures were reviewed and approved by the Animal Care and Handling Committee of Laval University, in accordance with the Canadian Council on Animal Care (file no. 2012-223). Experiments were performed on male Sprague-Dawley rats (300–375 g) purchased from Charles River Laboratories (St-Constant, Qc, Canada). Only animals of the male gender have been studied to be consistent with related and recently published data ([Jean et al., 2016a]). The rats were housed in a temperature-controlled room (22 ± 1 °C) on a 12 h/12 h light-dark cycle (lights on at 0600) and had free access to normal chow diet and tap water. They were allowed to acclimate to their environmental conditions for one week prior to being studied. At the end of the acclimation period, the rats were anesthetised with sodium pentobarbital (50 mg kg^−1, i.p., supplemented as required) and had one catheter implanted into the right jugular vein (for intravenous ( i.v.) injection) and one into the left femoral artery (for direct and continuous measurement of blood pressure and heart rate as previously described, [Jean et al., 2016a]). In some experiments, a miniaturized pulsed Doppler flow probe ([Haywood et al., 1981]) was implanted around the distal abdominal aorta (below the level of the ileocaecal artery) through a midline abdominal incision to monitor changes in hindquarter hemodynamic, according to the method previously developed by [Gardiner & Bennett (1988)] and as previously described ([Bachelard et al., 1992]; [Jean et al., 2016a]). Experiments started at least 30 min following the end of surgery in anesthetised rats.
Baseline heart rate and phasic and mean arterial blood pressure were recorded over a period of 15 min in anesthetized rats. […] Peptides were dissolved in isotonic saline (0.9% NaCl) containing 0.1% BSA to prevent the adsorption of peptide to the glassware and plastic surfaces. All i.v. injections were given as 100 µl boluses which were washed in with a further 100 µl of saline (the dead space of the catheter). Only one peptide was tested per group of rats and each injection started with saline-BSA 0.1% followed by the lowest dose of peptide. The next dose was administered once all recorded cardiovascular parameters had returned to baseline after the previous injection (usually 2–10 min). At the end of the experiments each animal was euthanized with an overdose of sodium pentobarbital (240 mg/kg, i.v.).
In these experiments, enalaprilat was intravenously administered as bolus (0.1 mg/kg, 0.1 ml) following a 10 min period of baseline measurements of heart rate and blood pressure. Fifteen minutes later, a dose–response curve to MK was obtained, as described above. […] In these experiments, icatibant was intravenously administered as bolus (25 µg/kg, 0.1 ml) 15 min before the i.v. injection of increasing doses of MK, as above. […] In these experiments, pyrilamine was intravenously administered as bolus (5 mg/kg, 0.1 ml) 15 min before the i.v. injection of increasing doses of MK, as above.
as §1, with “control).” for “control). The effects of drugs on the hypotensive responses to each dose of MK were assessed by using ANOVA followed by the Dunnett’s test.”

[2] = LC-MS of MK incubated with human umbilical vein ring; type: in vitro ADME; conditions: 37 °C; for fragment generated from MK: MK 1 µM in Krebs with umbilical vein ring, 5 or 15 min, LC-MS, duplicate; for increase of fragment ion intensity on reaction with tissue: vs. contaminant in commercial MK, MK 1 µM
Procedure: Synthetic MK (1 µM) was submitted to digestion in 2 ml of sterile-filtered Krebs solution in the presence of a freshly prepared ring of human umbilical vein (wet weight 25–37 mg). The tubes containing these materials were incubated at 37 °C for 5 or 15 min; the tissues were then removed and five volumes of cold ethanol (10 ml) were added to each tube. The tubes were incubated for 1 h on ice, centrifuged at 10,000 g to remove precipitated proteins and the kinin-containing supernatants were collected (procedure previously validated, [Raymond et al., 1995]). The supernatants were then completely evaporated to dryness in a Speedvac system and reconstituted in a small volume of water. Peptides were desalted on stage tip (C18), vacuum dried and then resuspended into 0.1% formic acid. One hundred fmol of each sample (starting MK quantity) was analyzed by mass spectrometry.
Mass spectrometry: peptide samples were separated by online reversed-phase (RP) nanoscale capillary liquid chromatography (nanoLC) and analyzed by electrospray mass spectrometry (ES MS/MS). The experiments were performed with a Ekspert NanoLC425 (Eksigent) coupled to a 5600+ mass spectrometer (AB Sciex, Framingham, MA, USA) equipped with a nanoelectrospray ion source. Peptide separation took place on a picofrit column (Reprosil 3u, 120A C18, 15 cm × 0.075 mm internal diameter). Peptides were eluted with a linear gradient from 5–35% solvent B (acetonitrile, 0.1% formic acid) in 35 min, at 300 nL/min. Mass spectra were acquired using a data dependent acquisition mode using Analyst software version 1.7. […] Dynamic exclusion was set for a period of 3 s and a tolerance of 100 ppm
Database searching: MGF peak list files were created using Protein Pilot version 5.0 software (Sciex) utilizing the Paragon and Progroup algorithms. MGF sample files were then analyzed using Mascot (Matrix Science, London, UK; version 2.5.1).
Mascot was set up to search the MK sequence assuming that the digestion enzyme was non-specific. Mascot was searched with a fragment ion mass tolerance of 0.100 Da and a parent ion tolerance of 0.100 Da. Deamidation of asparagine and glutamine and oxidation of methionine were specified in Mascot as variable modifications. Scaffold (version Scaffold_4.7.1; Proteome Software Inc., Portland, OR, USA) was used to validate MS/MS based peptide and protein identifications.
Data processing: Peak View 1.2.0.1 (Sciex) was used to extract the specific precursor masses and calculate the area under the curve. Extracted ion chromatoram (XIC) were generated from the TOF MS using a peak width of 0.05.

With `COc1ccc(CN(CCN(C)C)c2ccccn2)cc1` [pyrilamine] the “effect of receptor antagonist on MK-induced contraction” value ([1]; antagonist 1 µM, 30 min before MK) was “did not reduce the venous effect of MK”, the “effect of antagonist on histamine-induced contraction” value ([1]; antagonist 1 µM, 30 min before histamine) was “profoundly and competitively inhibiting” and the “Basal mean arterial blood pressure after pre-treatment” value (male Sprague-Dawley rats) was 87.4 ± 2.7. The “Basal heart rate after pre-treatment” value (male Sprague-Dawley rats) was 335 ± 6.1, the “effect of pretreatment on hypotensive effect of MK” value (male Sprague-Dawley rats; pyrilamine 5 mg/kg i.v.) was “did not antagonize the effects of MK” and the “effect of pretreatment on hypotensive effect of histamine” value (male Sprague-Dawley rats; pyrilamine 5 mg/kg i.v., histamine 6.4 µg/kg i.v.) was “abated the hypotensive effect of histamine”.
With `CC(C)C[C@H](NC(=O)[C@H]1O[C@@H]1C(=O)O)C(=O)NCCCCN=C(N)N` [E-64] the “effect of protease/peptidase inhibitor on contractile potency of MK” value (“effect of protease/peptidase inhibitor” below) ([1]; inhibitor 30 min before MK) was “failed to change the concentration-effect curve of MK”.
With `C[C@H](N[C@@H](CCc1ccccc1)C(=O)O)C(=O)N1CCC[C@H]1C(=O)O` [enalaprilat] the “Basal mean arterial blood pressure after pre-treatment” value (male Sprague-Dawley rats) was 94.9 ± 4.6, the “Basal heart rate after pre-treatment” value (male Sprague-Dawley rats) was “slight but significant increase in basal HR” and the “Basal heart rate after pre-treatment” value (male Sprague-Dawley rats; listed as Enalaprilat) was 417 ± 13^*. For the same compound, the “effect of pretreatment on hypotensive effect of MK” value (male Sprague-Dawley rats; pyrilamine 5 mg/kg i.v.) was “not significantly potentiated”.
With `N=C(N)NCCC[C@H](NC(=O)[C@H](Cc1ccccc1)NC(=O)[C@@H]1CCCN1C(=O)[C@H](CO)NC(=O)[C@H](Cc1ccccc1)NC(=O)CNC(=O)[C@@H]1CCCN1C(=O)[C@@H]1CCCN1C(=O)[C@H](CCCNC(=N)N)NC(=O)[C@@H]1CCCN1C(=O)CNC(=O)[C@@H](N)CCCCN)C(=O)O` [Lys-Gly-Pro-BK] (H-KGPRPPGFSPFR-OH) the “fragment generated from MK” value [2] was “evidenced in a time-dependent manner; also recorded: major C-terminal metabolite” and the “increase of fragment ion intensity on reaction with tissue” value [2] was 3-4 -fold.
In the case of “DLPKINRKGPRPP [N-terminal fragment of MK]”, the “fragment generated from MK” value [2] is reported as “Abundant”.
In the case of `N=C(N)NCCC[C@H](NC(=O)[C@H](Cc1ccccc1)NC(=O)[C@@H]1CCCN1C(=O)[C@H](CO)NC(=O)[C@H](Cc1ccccc1)NC(=O)CNC(=O)[C@@H]1CCCN1C(=O)[C@@H]1CCCN1C(=O)[C@H](CCCNC(=N)N)NC(=O)[C@@H]1CCCN1C(=O)CN)C(=O)O` [Gly-Pro-BK] (H-GPRPPGFSPFR-OH), the “fragment generated from MK” value [2] is reported as “evidenced in a time-dependent manner; also recorded: metabolite that accumulates” and the “increase of fragment ion intensity on reaction with tissue” value [2] is reported as 3-4 -fold.
For `O=C([O-])CN(CCN(CC(=O)[O-])CC(=O)[O-])CC(=O)[O-].[Ca+2].[Na+].[Na+]` [EDTA calcium disodium], the “effect of protease/peptidase inhibitor” value [1] was “The same applied”.
With “DLPKINRKGPRPPGF [N-terminal fragment of MK]” the “fragment generated from MK” value [2] was “Abundant”.
With `CC(=O)N[C@@H](CC(C)C)C(=O)N[C@@H](CC(C)C)C(=O)N[C@H](C=O)CCCNC(=N)N` [leupeptin] the “effect of protease/peptidase inhibitor” value ([1]; inhibitor 30 min before MK) was “The same applied”.
With `Cl.NCCc1ccc(S(=O)(=O)F)cc1` [pefabloc SC] the “effect of protease/peptidase inhibitor” value ([1]; inhibitor 30 min before MK) was “failed to change the concentration-effect curve of MK”.
With `O=C(N[C@H]1CCS[C@H]2CCC[C@@H](C(=O)O)N2C1=O)[C@@H](S)Cc1ccccc1` [omapatrilat] the “effect of protease/peptidase inhibitor” value ([1]; inhibitor 30 min before MK) was “failed to modify the contractile effect of MK”.
